Test results as given in the supplement of paper PMC13207355.
Structures can show the parent of a compound that is named as a salt.

Columns and labels:
Details in all cases: exposure time: 72 h
E31 [1] = patient-derived glioblastoma stem cells of proneural subtype; experiment: surviving fraction (nuclei count normalised to DMSO); higher = more cells surviving (less toxic)
E21 [2] = patient-derived glioblastoma stem cells of mesenchymal subtype; experiment: as above
E13 [3] = patient-derived glioblastoma stem cells of classical subtype; experiment: as above
E28 [4] = patient-derived glioblastoma stem cells of classical subtype; experiment: as above
FT3469 [5] = normal neural stem cell line; experiment: as above
E34 [6] = patient-derived glioblastoma stem cells of proneural subtype; experiment: as above
E57 [7] = patient-derived glioblastoma stem cells of mesenchymal subtype; experiment: as above
E31 [8] = experiment: phenotypic distance (Euclidean, principal components) from DMSO controls (arbitrary units); higher = stronger morphological change
E21 [9] = experiment: as above
E13 [10] = experiment: as above
E28 [11] = experiment: as above
FT3469 [12] = experiment: as above
E34 [13] = experiment: as above
E57 [14] = experiment: as above
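Throughout, for phenotypic distance (Euclidean, principal components) from DMSO controls: cell Painting imaging in 384-well plates, CellProfiler features reduced to at least 20 principal components, Euclidean distance versus same-plate DMSO vehicle wells (0.1% v/v), median over six images per well.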
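Throughout, for surviving fraction (nuclei count normalised to DMSO): nuclei counted by high-content imaging of Hoechst-stained cells in laminin-coated 384-well plates, relative to 0.1% DMSO vehicle wells, with staurosporine as cell-death control.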

Nc1ccn([C@@H]2O[C@H](CO)[C@@H](O)C2(F)F)c(=O)n1 [Gemcitabine HCl]
Details	phenotypic distance	surviving fraction
E13 [3], 4.1 nM	–	0.327
E13 [3], 12.3 nM	–	0.326
E13 [3], 37 nM	–	0.331
E13 [3], 111.1 nM	–	0.351
E13 [3], 333.3 nM	–	0.32
E13 [3], 1000 nM	–	0.333
E13 [3], 3000 nM	–	0.352
E13 [10], 4.1 nM	5.82	–
E13 [10], 12.3 nM	5.84	–
E13 [10], 37 nM	5.64	–
E13 [10], 111.1 nM	4.94	–
E13 [10], 333.3 nM	6.22	–
E13 [10], 1000 nM	5.7	–
E13 [10], 3000 nM	5.74	–
E21 [2], 4.1 nM	–	0.161
E21 [2], 12.3 nM	–	0.173
E21 [2], 37 nM	–	0.126
E21 [2], 111.1 nM	–	0.143
E21 [2], 333.3 nM	–	0.147
E21 [2], 1000 nM	–	0.129
E21 [2], 3000 nM	–	0.0999
E21 [9], 4.1 nM	4.04	–
E21 [9], 12.3 nM	4.48	–
E21 [9], 37 nM	4.76	–
E21 [9], 111.1 nM	5.02	–
E21 [9], 333.3 nM	4.71	–
E21 [9], 1000 nM	4.97	–
E21 [9], 3000 nM	4.67	–
E28 [4], 4.1 nM	–	0.359
E28 [4], 12.3 nM	–	0.438
E28 [4], 37 nM	–	0.376
E28 [4], 111.1 nM	–	0.456
E28 [4], 333.3 nM	–	0.401
E28 [4], 1000 nM	–	0.361
E28 [4], 3000 nM	–	0.264
E28 [11], 4.1 nM	3.94	–
E28 [11], 12.3 nM	3.54	–
E28 [11], 37 nM	3.74	–
E28 [11], 111.1 nM	3.43	–
E28 [11], 333.3 nM	3.31	–
E28 [11], 1000 nM	3.19	–
E28 [11], 3000 nM	4.17	–
E31 [1], 4.1 nM	–	0.147
E31 [1], 12.3 nM	–	0.249
E31 [1], 37 nM	–	0.161
E31 [1], 111.1 nM	–	0.229
E31 [1], 333.3 nM	–	0.201
E31 [1], 1000 nM	–	0.199
E31 [1], 3000 nM	–	0.161
E31 [8], 4.1 nM	3.35	–
E31 [8], 12.3 nM	2.57	–
E31 [8], 37 nM	3.01	–
E31 [8], 111.1 nM	2.66	–
E31 [8], 333.3 nM	2.37	–
E31 [8], 1000 nM	3	–
E31 [8], 3000 nM	3.64	–
E34 [6], 4.1 nM	–	0.494
E34 [6], 12.3 nM	–	0.545
E34 [6], 37 nM	–	0.509
E34 [6], 111.1 nM	–	0.52
E34 [6], 333.3 nM	–	0.549
E34 [6], 1000 nM	–	0.496
E34 [6], 3000 nM	–	0.415
E34 [13], 4.1 nM	3.49	–
E34 [13], 12.3 nM	2.98	–
E34 [13], 37 nM	3.41	–
E34 [13], 111.1 nM	4.74	–
E34 [13], 333.3 nM	3.17	–
E34 [13], 1000 nM	2.85	–
E34 [13], 3000 nM	2.83	–
E57 [7], 4.1 nM	–	0.168
E57 [7], 12.3 nM	–	0.168
E57 [7], 37 nM	–	0.156
E57 [7], 111.1 nM	–	0.165
E57 [7], 333.3 nM	–	0.139
E57 [7], 1000 nM	–	0.159
E57 [7], 3000 nM	–	0.149
E57 [14], 4.1 nM	6.66	–
E57 [14], 12.3 nM	8.21	–
E57 [14], 37 nM	6.89	–
E57 [14], 111.1 nM	7.27	–
E57 [14], 333.3 nM	7.04	–
E57 [14], 1000 nM	7.07	–
E57 [14], 3000 nM	6.77	–
FT3469 [5], 4.1 nM	–	0.53
FT3469 [5], 12.3 nM	–	0.842
FT3469 [5], 37 nM	–	0.616
FT3469 [5], 111.1 nM	–	0.663
FT3469 [5], 333.3 nM	–	0.566
FT3469 [5], 1000 nM	–	0.568
FT3469 [5], 3000 nM	–	0.645
FT3469 [12], 4.1 nM	1.82	–
FT3469 [12], 12.3 nM	1.99	–
FT3469 [12], 37 nM	2.01	–
FT3469 [12], 111.1 nM	2.15	–
FT3469 [12], 333.3 nM	1.98	–
FT3469 [12], 1000 nM	1.8	–
FT3469 [12], 3000 nM	1.5	–

COc1ccc([C@@H]2CC(=O)c3c(O)cc(O[C@@H]4O[C@H](CO[C@@H]5O[C@@H](C)[C@H](O)[C@@H](O)[C@H]5O)[C@@H](O)[C@H](O)[C@H]4O)cc3O2)cc1O [Hesperidin]
Details	phenotypic distance	surviving fraction
E13 [3], 4.1 nM	–	0.863
E13 [3], 12.3 nM	–	0.95
E13 [3], 37 nM	–	0.946
E13 [3], 111.1 nM	–	0.963
E13 [3], 333.3 nM	–	0.941
E13 [3], 1000 nM	–	1.04
E13 [3], 3000 nM	–	0.96
E13 [10], 4.1 nM	0.619	–
E13 [10], 12.3 nM	0.532	–
E13 [10], 37 nM	0.507	–
E13 [10], 111.1 nM	0.462	–
E13 [10], 333.3 nM	0.682	–
E13 [10], 1000 nM	0.572	–
E13 [10], 3000 nM	0.438	–
E21 [2], 4.1 nM	–	0.916
E21 [2], 12.3 nM	–	0.952
E21 [2], 37 nM	–	0.918
E21 [2], 111.1 nM	–	1.01
E21 [2], 333.3 nM	–	0.971
E21 [2], 1000 nM	–	1.02
E21 [2], 3000 nM	–	0.969
E21 [9], 4.1 nM	0.723	–
E21 [9], 12.3 nM	1.01	–
E21 [9], 37 nM	0.467	–
E21 [9], 111.1 nM	0.825	–
E21 [9], 333.3 nM	0.905	–
E21 [9], 1000 nM	0.753	–
E21 [9], 3000 nM	1.01	–
E28 [4], 4.1 nM	–	1.02
E28 [4], 12.3 nM	–	1.13
E28 [4], 37 nM	–	1.02
E28 [4], 111.1 nM	–	0.97
E28 [4], 333.3 nM	–	1.02
E28 [4], 1000 nM	–	1.13
E28 [4], 3000 nM	–	0.967
E28 [11], 4.1 nM	0.47	–
E28 [11], 12.3 nM	0.575	–
E28 [11], 37 nM	0.783	–
E28 [11], 111.1 nM	0.619	–
E28 [11], 333.3 nM	0.437	–
E28 [11], 1000 nM	0.666	–
E28 [11], 3000 nM	1.36	–
E31 [1], 4.1 nM	–	0.929
E31 [1], 12.3 nM	–	1.11
E31 [1], 37 nM	–	1.1
E31 [1], 111.1 nM	–	0.966
E31 [1], 333.3 nM	–	1.09
E31 [1], 1000 nM	–	1.04
E31 [1], 3000 nM	–	0.936
E31 [8], 4.1 nM	0.45	–
E31 [8], 12.3 nM	0.684	–
E31 [8], 37 nM	0.77	–
E31 [8], 111.1 nM	0.32	–
E31 [8], 333.3 nM	0.513	–
E31 [8], 1000 nM	0.709	–
E31 [8], 3000 nM	0.756	–
E34 [6], 4.1 nM	–	1.02
E34 [6], 12.3 nM	–	0.86
E34 [6], 37 nM	–	0.979
E34 [6], 111.1 nM	–	1.21
E34 [6], 333.3 nM	–	1.01
E34 [6], 1000 nM	–	0.93
E34 [6], 3000 nM	–	1.06
E34 [13], 4.1 nM	0.666	–
E34 [13], 12.3 nM	0.79	–
E34 [13], 37 nM	0.595	–
E34 [13], 111.1 nM	1.02	–
E34 [13], 333.3 nM	0.595	–
E34 [13], 1000 nM	0.635	–
E34 [13], 3000 nM	0.793	–
E57 [7], 4.1 nM	–	1
E57 [7], 12.3 nM	–	1.12
E57 [7], 37 nM	–	0.932
E57 [7], 111.1 nM	–	0.961
E57 [7], 333.3 nM	–	0.943
E57 [7], 1000 nM	–	0.925
E57 [7], 3000 nM	–	0.915
E57 [14], 4.1 nM	0.43	–
E57 [14], 12.3 nM	0.735	–
E57 [14], 37 nM	0.539	–
E57 [14], 111.1 nM	0.532	–
E57 [14], 333.3 nM	0.511	–
E57 [14], 1000 nM	0.762	–
E57 [14], 3000 nM	0.602	–
FT3469 [5], 4.1 nM	–	1.13
FT3469 [5], 12.3 nM	–	1.1
FT3469 [5], 37 nM	–	1.05
FT3469 [5], 111.1 nM	–	1.15
FT3469 [5], 333.3 nM	–	0.937
FT3469 [5], 1000 nM	–	1.01
FT3469 [5], 3000 nM	–	0.981
FT3469 [12], 4.1 nM	0.821	–
FT3469 [12], 12.3 nM	1.41	–
FT3469 [12], 37 nM	0.766	–
FT3469 [12], 111.1 nM	1.05	–
FT3469 [12], 333.3 nM	0.567	–
FT3469 [12], 1000 nM	0.989	–
FT3469 [12], 3000 nM	0.744	–
